For one test, the system named is rats. The note with it: subcutaneous, single dose 20 μl of 10 μg/μl, 1 hour after fear conditioning, relative to saline. On the procedure: A fear conditioning in vivo model was performed as in example 3A, however, no cannula was introduced into the rats. […] A fear memory test was performed 24 hours after the injection.
The target of test [1] is T1, EphA4 (Rattus norvegicus, UniProt D3ZZK3). Description: Pull down experiment with pep-ephrinA4 (FIG. 4B), EphA4. The settings on record: vs pep-control and agarose beads alone. The format is binding.
In test [2] the target is elongation factor 2 protein (eEF2) (Rattus norvegicus, UniProt P05197). Description: Pull down experiment with pep-ephrinA4, eEF2 control protein. The format is binding.
The test system of the next test is EphB2 receptor. The settings on record: control protein.
The target of test [3] is T1, EphA4. Description: ephrinA4-induced EphA4 tyrosine phosphorylation in brain slices containing the amygdala (immunoprecipitation, Western blot). The format is cell-based. Set-up: brain slices that contain the amygdala were divide to 3 groups; from tissue; host or cells: brain slices containing the amygdala. The note with it: brain slices in Ringer's solution stimulated with ephrinA4-Fc for 20 minutes, compared to Ringer's solution control. On the procedure:
Further, brain slices that contain the amygdala were divide to 3 groups: 1) placed in Ringer's solution, 2) placed in Ringer's solution and stimulated with ephrinA4-Fc for 20 minutes or 3) placed in Ringer's solution with pep-ephrinA4 for 20 minutes followed by stimulation with ephrinA4-Fc for 20 minutes (n=3 each). Protein extracts from the slices were immunoprecipitated with anti-EphA4 antibody and subjected to Western blot with anti-EphA4 or anti-phosphotyrosine antibodies.
For orientation: Immunoblotting shows a protein as a band on a membrane.

T1 sequence (D3ZZK3 20-986): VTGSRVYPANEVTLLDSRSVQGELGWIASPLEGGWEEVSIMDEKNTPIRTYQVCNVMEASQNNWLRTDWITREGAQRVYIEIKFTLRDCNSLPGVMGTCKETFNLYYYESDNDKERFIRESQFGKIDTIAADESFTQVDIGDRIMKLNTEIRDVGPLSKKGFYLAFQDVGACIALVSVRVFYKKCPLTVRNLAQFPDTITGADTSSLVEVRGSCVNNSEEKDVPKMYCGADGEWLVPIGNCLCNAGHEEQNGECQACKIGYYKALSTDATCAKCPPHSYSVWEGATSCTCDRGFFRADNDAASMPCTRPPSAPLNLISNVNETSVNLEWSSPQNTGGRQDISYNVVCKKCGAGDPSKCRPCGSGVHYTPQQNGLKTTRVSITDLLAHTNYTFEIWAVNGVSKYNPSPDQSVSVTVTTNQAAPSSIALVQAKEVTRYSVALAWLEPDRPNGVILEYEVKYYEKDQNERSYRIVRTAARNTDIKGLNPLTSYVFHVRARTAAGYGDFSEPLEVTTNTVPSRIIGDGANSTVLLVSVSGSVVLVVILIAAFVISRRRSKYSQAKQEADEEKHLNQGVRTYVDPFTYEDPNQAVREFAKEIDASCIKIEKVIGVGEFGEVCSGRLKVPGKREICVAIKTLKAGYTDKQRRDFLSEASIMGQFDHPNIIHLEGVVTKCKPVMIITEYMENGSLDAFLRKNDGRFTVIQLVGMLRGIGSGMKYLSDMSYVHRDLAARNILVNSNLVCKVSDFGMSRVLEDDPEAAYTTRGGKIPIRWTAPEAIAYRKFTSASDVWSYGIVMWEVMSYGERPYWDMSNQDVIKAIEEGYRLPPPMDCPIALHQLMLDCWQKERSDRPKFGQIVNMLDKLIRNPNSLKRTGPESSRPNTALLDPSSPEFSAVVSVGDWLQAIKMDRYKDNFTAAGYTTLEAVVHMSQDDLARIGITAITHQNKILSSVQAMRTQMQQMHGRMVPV
Protocol for male Sprague Dawley rats: Subsequently, the neutral stimulus is administered to the groups of animals, and the animals' responses are analyzed. A test group of animals is administered a test agent which may inhibit the long term association in the memory of the animals between the neutral stimulus and the aversive event. If at a point in time about 24 hours after training the animals in the test group respond to the stimulus to a lesser degree than the animals in the control group without having other significant side effects, the test agent is determined to inhibit formation of long term memories. […] Short term memory formation was also tested in the current model by testing responses to stimulus 60 minutes after training.
In the current model, neutral stimulus provided to the animals was a tone and the aversive event was a mild footshock provided to the animals.
Long-term memory formation is believed to involve modifications in neural transmission and/or synaptic connections in neural networks in the area of the brain known as the lateral amygdala (LA.) In the current model, Peptide 1 was used a test agent and was administered directly to the LA.
In the model, male Sprague Dawley rats (each weighing about 250-300 grams), were used in the study (animals were obtained from Harlan Laboratories). In order to administer test agents to the LA of the rats, surgery was performed in which cannulas were inserted. To perform the surgery, rats were anesthetized with Xylazine 2% (15 milligrams per kilogram [mg/kg]) and Ketamine (120 mg/kg). Calmagine (Vetoquinol) (0.01 milliliters) was injected for analgesia before surgery. Guide stainless-steel cannulas (23 gauge) were implanted bilaterally 1.5 millimeters (mm) above the LA. The animals recovered for 5-7 days before behavior training.
Following surgery, rats were housed separately at 22±2° C. in a 12 hour light/dark cycle, with free access to food and water.
Rats were habituated to the training chamber and to the injection machine for 2 days for 30 min each day. On the next day the animals were subjected to the fear conditioning protocol. […]

Consider “Ac-RRQRYTPFPLGFE-Lys(Biotin)-NH2-0H [peptide 1]”, for which the “freezing in fear memory test 24 hours after the injection” value in the test on rats is listed as “significantly reducing freezing”. On EphA4 [1], the “interaction with EphA4 (pull down)” value is reported as “interacts”. In addition, the “interaction with elongation factor 2 protein (eEF2) (pull down)” value in test [2] is on record as “did not interact”. Besides, in the test on male Sprague Dawley rats (0.5 μl of 10 μg/μl per amygdala into LA 30 minutes before training, vs saline, peptide 2 and misplaced peptide 1), the “freezing 24 hours after training (long term fear memory)” value is listed as “froze significantly less”. Moreover, the “rate of fear reduction over the trials” value with male Sprague Dawley rats (LA microinjection, compared to controls) is recorded as “did not alter”. For the same substance, the “freezing 1 hour after training (formation of short term memory)” value in the test on male Sprague Dawley rats (LA microinjection, no main effect for groups (p>0.4)) was “does not inhibit”. In addition, in the test with EphB2 receptor, the “interaction with EphB2 receptor (pull down)” value was “did not interact”.

For the substance “Ac-RRWSGYEACTAEG-Lys(Biotin)-NH2-0H [peptide 2, reference compound]”, the “interaction with EphA4 (pull down)” value on EphA4 [1] is “not”.

Consider “ephrinA4: ephrinA4-Fc used to stimulate brain slices for 20 minutes (RRQRYTPFPLGFEK)”, for which the “EphA4 phosphorylation after stimulation” value with EphA4 [3] is “significant increase”.

(Values after patent publication US9765116B2, “Inhibitors of the Eph-A receptor and uses thereof” (Carmel Haifa University Economic Corporation Ltd., priority 2013, dated 2017).)
